Measured values from ChEMBL document CHEMBL5537181 (J Med Chem, 2024).
Active and inactive are the calls of the source.

Columns and labels:
Type in all cases: functional, organism-based
Rattus norvegicus [1] = assay: Analgesic activity in Chronic constriction injury rat model assessed as increase in paw withdrawal latency at 30 mg/kg,po administration and measured for 0.5 to 48 hrs; conditions: time 0.5-48 hrs
Rattus norvegicus [2] = assay: Analgesic activity in Chronic constriction injury rat model assessed as increase in paw withdrawal threshold at 30 mg/kg,po administration and measured for 0.5 to 48 hrs; conditions: time 0.5-48 hrs
Rattus norvegicus [3] = assay: Antinociceptive activity in Chronic constriction injury rat model assessed as reduction in pain at 5 mg/kg,IM administration and measured after 12 hrs
Rattus norvegicus [4] = assay: Analgesic activity in Chronic constriction injury rat model assessed as increase in paw withdrawal latency at 5 mg/kg,IM administration and measured for 0.5 to 48 hrs; conditions: time 0.5-48 hrs
Rattus norvegicus [5] = assay: Analgesic activity in Chronic constriction injury rat model assessed as increase in paw withdrawal threshold at 5 mg/kg,IM administration and measured for 0.5 to 48 hrs; conditions: time 0.5-48 hrs
Rattus norvegicus [6] = assay: Antinociceptive activity in Chronic constriction injury rat model assessed as reduction in pain at 5 mg/kg,IM administration and measured after 2 hrs

Measured: Activity

CC(C)C[C@H](CN)CC(=O)O
active: Rattus norvegicus [1] | Rattus norvegicus [2]

CN1CC[C@]23c4c5ccc(O)c4O[C@H]2[C@@H](O)C=C[C@H]3[C@H]1C5
active: Rattus norvegicus [3] | Rattus norvegicus [4] | Rattus norvegicus [5] | Rattus norvegicus [6]
